Data taken from patent publication US20250188079A1, “INHIBITING CYCLIC AMP-RESPONSIVE ELEMENT-BINDING PROTEIN (CREB)” (Forma Therapeutics, Inc., priority 2019, published 2025).

The compounds below were run against CBP (Homo sapiens (Human), UniProt Q92793) (assay: HTRF biochemical assay for CBP activity (TR-FRET, bromodomain)). Settings: geometric mean, 10-point 3-fold dilution 33 μM to 1.7 nM, read-out: BROMO IC50 TRF TB CBP (μM gmean).
Assay type: binding
Procedure, shortened: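 Compounds were tested as 10-point, 3-fold dilutions (33 μM to 1.7 nM final) against CBP protein and peptide ligand in pH 7.5 Hepes buffer with GSH, BGG, BSA and Triton X-100 at room temperature for varying times. The TR-FRET 520/490 ratio gave % inhibition versus no-enzyme and DMSO controls, and IC50 came from 4-parameter logistic fits.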

Chain of CBP (Q92793 1085-1192): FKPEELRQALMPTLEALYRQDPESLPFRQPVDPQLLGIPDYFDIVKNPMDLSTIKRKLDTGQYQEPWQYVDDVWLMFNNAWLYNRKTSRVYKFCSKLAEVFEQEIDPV

Compound | IC50
COC(=O)N1CCc2ccc3c(nc(C4CCCCC4)n3[C@H](Cc3ccccc3)C(=O)O)c2C1 [Compound 206] | 0.01 to 0.1 µM
COC(=O)N1CCc2ccc3c(nc(C4CCCC4)n3C[C@@H](C(=O)O)c3ccccc3)c2C1 [Compound 205] | 0.01 to 0.1 µM
COC(=O)N1CCc2ccc3c(nc(-c4cccc(CC(=O)O)c4)n3[C@@H](C)Cc3cc(F)cc(F)c3)c2C1 [Compound 116] | 0.001 to 0.01 µM
COC(=O)N1CCc2ccc3c(nc(C4CCC(C(=O)O)CC4)n3[C@H](C)C[C@]3(C)CC[C@H](OC)CC3)c2C1 (some centres unmarked) [Compound 175] | 0.01 to 0.1 µM
COC(=O)N1CCc2ccc3c(nc([C@H]4CC[C@H](C(=O)O)CC4)n3C[C@H]3CCc4ccccc4C3)c2C1 [Compound 169] | 0.001 to 0.01 µM
COC(=O)N1CCc2ccc3c(nc([C@@H]4CCC[C@@H](C(=O)O)C4)n3[C@@H](C)Cc3ccc(F)c(F)c3)c2C1 [Compound 143] | 0.001 to 0.01 µM
COC(=O)N1CCc2ccc3c(nc([C@H]4CCCOC4)n3C[C@H](C(=O)O)c3ccc(C)cc3)c2C1 [Compound 53] | 0.001 to 0.01 µM
(3R)-4-[2-cyclohexyl-8-(methoxycarbonyl)-3H,6H,7H,8H,9H-imidazo[4,5-h]isoquinolin-3-yl]-3-(3-fluoro-5-methoxyphenyl)butanoic acid [Compound 194] | 0.01 to 0.1 µM
COC(=O)N1CCc2ccc3c(nc([C@H]4CCC[C@H](C(=O)O)C4)n3C(C)Cc3ccccc3Cl)c2C1 (stereo in doubt) [Compound 19, (1S,3S)-3-{3-[(2R)-1-(2-chlorophenyl)propan-2-yl]-8-(methoxycarbonyl)-3H,6H,7H,8H,9H-imidazo[4,5-h]isoquinolin-2-yl}cyclohexane-1-carboxylic acid] | 0.001 to 0.01 µM
COC(=O)N1CCc2ccc3c(nc(C4CCCCC4)n3C[C@H]3CC[C@H](C(=O)O)CC3)c2C1 [Compound 83] | 0.001 to 0.01 µM
COC(=O)N1CCc2ccc3c(nc(C4CCCCC4)n3C[C@H](CC(=O)O)c3ccc(F)c(F)c3)c2C1 [Compound 70] | 0.001 to 0.01 µM
(1S,3S)-3-[3-[(2R)-1-(3,4-difluorophenyl)propan-2-yl]-8-(methoxycarbonyl)-3H,6H,7H,8H,9H-imidazo[4,5-h]isoquinolin-2-yl]cyclohexane-1-carboxylic acid [Compound 31] | 0.001 to 0.01 µM
COC(=O)N1CCc2ccc3c(nc(C4CCCCC4)n3[C@H](C)C[C@@H]3CCCC[C@H]3C(=O)O)c2C1 [Compound 251] | 0.01 to 0.1 µM
COC(=O)N1CCc2ccc3c(nc(N4CCN(C(=O)C5COC5)CC4)n3[C@@H](C)Cc3ccccc3)c2C1 [Compound 337] | 0.1 to 1 µM
(2R)-3-[2-cyclohexyl-8-(methoxycarbonyl)-3H,6H,7H,8H,9H-imidazo[4,5-h]isoquinolin-3-yl]-2-(5-fluoro-2-methoxyphenyl)propanoic acid [Compound 241] | 0.01 to 0.1 µM
COC(=O)N1CCc2ccc3c(nc([C@@H]4CCC[C@@H](C(=O)O)C4)n3[C@H](C)Cc3ccc(F)c(F)c3)c2C1 [Compound 217] | 0.01 to 0.1 µM
COC(=O)N1CCc2ccc3c(nc(N4CCC(C(=O)O)CC4)n3[C@@H](C)Cc3cc(F)cc(F)c3)c2C1 [Compound 45] | 0.001 to 0.01 µM
COC(=O)N1CCc2c(Cl)cc3c(nc([C@H]4CC[C@H](C(=O)O)CC4)n3[C@@H](C)Cc3ccccc3)c2C1 [Compound 81] | 0.001 to 0.01 µM
COC(=O)N1CCc2ccc3c(nc(C4CCN(S(N)(=O)=O)CC4)n3[C@@H](C)Cc3ccccc3)c2C1 [Compound 107] | 0.001 to 0.01 µM
COC(=O)N1CCc2ccc3c(nc(C4CCCC4)n3C[C@@H](CC(=O)O)c3ccccc3)c2C1 (single isomer, unassigned) [Compound 34] | 0.001 to 0.01 µM
COC[C@@H](Cc1ccccc1)n1c2ccc3c(c2nc1[C@H]1CC[C@H](C(=O)O)CC1)CN(C(=O)OC)CC3 [Compound 124] | 0.001 to 0.01 µM
COC(=O)N1CCc2c(C(=O)O)cc3c(nc(C4CCCCC4)n3[C@H](C)Cc3ccccc3)c2C1 [Compound 300] | 0.1 to 1 µM
COC(=O)N1CCc2ccc3c(nc([C@H]4CC[C@H](S(=O)(=O)NC(C)=O)CC4)n3[C@@H](C)Cc3ccccc3)c2C1 [Compound 96] | 0.001 to 0.01 µM
